{
  "source": "BindingDB's records for patent US20250313563",
  "about": "(The Broad Institute, 2025)",
  "key": {"[1]": {"molecular_target": "Glycogen synthase kinase-3 beta (Homo sapiens, UniProt P49841)", "sequence (P49841 whole entry)": "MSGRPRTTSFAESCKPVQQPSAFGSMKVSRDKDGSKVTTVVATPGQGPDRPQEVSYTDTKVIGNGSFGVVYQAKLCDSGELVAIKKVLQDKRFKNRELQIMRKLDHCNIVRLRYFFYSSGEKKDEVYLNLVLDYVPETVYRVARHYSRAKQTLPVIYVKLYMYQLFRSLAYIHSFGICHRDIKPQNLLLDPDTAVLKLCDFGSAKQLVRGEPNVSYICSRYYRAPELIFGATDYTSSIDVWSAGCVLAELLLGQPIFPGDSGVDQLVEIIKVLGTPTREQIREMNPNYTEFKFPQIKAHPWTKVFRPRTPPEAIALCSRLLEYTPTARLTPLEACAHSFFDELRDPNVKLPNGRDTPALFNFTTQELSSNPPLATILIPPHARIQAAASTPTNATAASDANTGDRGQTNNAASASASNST", "assay": "TR-FRET Assay", "how_it_was_run": "(§1)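 Kinase activity, measured after a 30-minute compound preincubation, was stopped with EDTA and quantified by TR-FRET using a Tb-labelled pSer641 antibody paired with streptavidin-d2.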"}, "[2]": {"molecular_target": "Glycogen synthase kinase-3 alpha (Homo sapiens, UniProt P49840)", "sequence (P49840 whole entry)": "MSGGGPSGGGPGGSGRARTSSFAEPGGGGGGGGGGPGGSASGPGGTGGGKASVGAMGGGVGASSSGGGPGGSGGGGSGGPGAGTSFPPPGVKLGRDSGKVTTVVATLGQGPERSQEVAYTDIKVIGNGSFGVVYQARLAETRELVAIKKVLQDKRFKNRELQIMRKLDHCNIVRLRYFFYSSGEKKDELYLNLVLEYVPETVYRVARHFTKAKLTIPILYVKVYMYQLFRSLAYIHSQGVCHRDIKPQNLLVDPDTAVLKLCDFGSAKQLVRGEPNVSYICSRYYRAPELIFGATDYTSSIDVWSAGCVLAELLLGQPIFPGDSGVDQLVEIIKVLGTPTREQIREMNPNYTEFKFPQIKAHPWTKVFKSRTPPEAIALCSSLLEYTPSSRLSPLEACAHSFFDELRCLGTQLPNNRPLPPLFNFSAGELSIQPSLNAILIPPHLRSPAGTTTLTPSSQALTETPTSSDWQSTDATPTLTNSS", "assay": "TR-FRET Assay", "how_it_was_run": "as §1"}},
  "note": "Values joined by “and” are separate entries in the source; they are usually repeats but may differ in a detail not shown here. Identical values can stand only once.",
  "data": [
    {"smiles": "CCC1(c2cccc(N(C)c3nc(C)cc(C)n3)c2)C2=CN=NC2NC2=C1C(=O)CC(C)(C)C2", "note": "(centres undefined) [US20250313563, Compound 926304]", "values": [
      {"measurement": "IC50", "setting": "[1]", "result": "1000 to 5000", "unit": "nM"},
      {"measurement": "IC50", "setting": "[2]", "result": "100 to 1000", "unit": "nM"}
    ]},
    {"smiles": "CCC1(c2cccc(C3CCCC3)c2)C2=CN=NC2NC2=C1C(=O)CC(C)(C)C2", "note": "(centres undefined) [US20250313563, Compound 949082]", "values": [
      {"measurement": "IC50", "setting": "[1]", "result": "< 100", "unit": "nM"},
      {"measurement": "IC50", "setting": "[2]", "result": "< 100", "unit": "nM"}
    ]},
    {"smiles": "COc1ncccc1S(=O)(=O)N1CCC2(CC1)C1=C(N=NC1)NC1=C2C(=O)CC(C)(C)C1", "note": "[US20250313563, Compound 947260]", "values": [
      {"measurement": "IC50", "setting": "[1]", "result": "< 100 nM and 100 to 1000 nM"},
      {"measurement": "IC50", "setting": "[2]", "result": "< 100", "unit": "nM"}
    ]},
    {"smiles": "CCC1(c2cccc(C3=CN=NC3)c2)C2=C(CC(C)(C)NC2=O)NC2N=NC(C)=C21", "note": "(centres undefined) [US20250313563, Compound 945459]", "values": [
      {"measurement": "IC50", "setting": "[1]", "result": "< 100", "unit": "nM"},
      {"measurement": "IC50", "setting": "[2]", "result": "< 100", "unit": "nM"}
    ]},
    {"smiles": "CC[C@]1(c2cccc(-c3ccnc4cc(F)c(F)cc34)c2)C2=CN=NC2NC2=C1C(=O)NC(C)(C)C2", "note": "(some centres undefined) [US20250313563, Compound 948664]", "values": [
      {"measurement": "IC50", "setting": "[1]", "result": "> 5000", "unit": "nM"},
      {"measurement": "IC50", "setting": "[2]", "result": "1000 to 5000", "unit": "nM"}
    ]},
    {"smiles": "CCC1(c2cccc(S(=O)(=O)C(C)C)c2)C2=C(CC(C)(C)NC2=O)NC2N=NC(C)=C21", "note": "(centres undefined) [US20250313563, Compound 947396]", "values": [
      {"measurement": "IC50", "setting": "[1]", "result": "< 100", "unit": "nM"},
      {"measurement": "IC50", "setting": "[2]", "result": "< 100", "unit": "nM"}
    ]},
    {"smiles": "C[C@@H]1C[C@@]2(CCN1S(C)(=O)=O)C1=C(N=NC1)NC1=C2C(=O)CC(C)(C)C1", "note": "[US20250313563, Compound 918315]", "values": [
      {"measurement": "IC50", "setting": "[1]", "result": "100 to 1000", "unit": "nM"},
      {"measurement": "IC50", "setting": "[2]", "result": "100 to 1000", "unit": "nM"}
    ]},
    {"smiles": "C[C@@H]1C[C@H](C)C(=O)C2=C1NC1=C(CN=N1)C21CCOCC1", "note": "[US20250313563, Compound 893316]", "values": [
      {"measurement": "IC50", "setting": "[1]", "result": "100 to 1000", "unit": "nM"},
      {"measurement": "IC50", "setting": "[2]", "result": "< 100", "unit": "nM"}
    ]},
    {"smiles": "CCC1(c2cccc(-c3ccnc(N(C)C)c3)c2)C2=C(CC(C)(C)CC2=O)NC2N=NC(C)=C21", "note": "(centres undefined) [US20250313563, Compound 883990]", "values": [
      {"measurement": "IC50", "setting": "[1]", "result": "100 to 1000", "unit": "nM"},
      {"measurement": "IC50", "setting": "[2]", "result": "< 100", "unit": "nM"}
    ]},
    {"smiles": "CC[C@@]1(c2cccc(-c3ccnc(C)c3)c2)C2=CN=NC2NC2=C1C(=O)CC(C)(C)[C@H]2F", "note": "(some centres undefined) [US20250313563, Compound 946104]", "values": [
      {"measurement": "IC50", "setting": "[1]", "result": "100 to 1000", "unit": "nM"},
      {"measurement": "IC50", "setting": "[2]", "result": "100 to 1000", "unit": "nM"}
    ]},
    {"smiles": "CCC1(CC)C2=C(CC(C)(C)CC2=O)NC2=C1C(C)N=N2", "note": "(centres undefined) [US20250313563, Compound 786061]", "values": [
      {"measurement": "IC50", "setting": "[1]", "result": "> 1670", "unit": "nM"},
      {"measurement": "IC50", "setting": "[2]", "result": "100 to 1000", "unit": "nM"}
    ]},
    {"smiles": "CC[C@]1(c2cccc(-c3ccncc3F)c2)C2=CN=NC2NC2=C1C(=O)NC(C)(C)C2", "note": "(some centres undefined) [US20250313563, Compound 947874]", "values": [
      {"measurement": "IC50", "setting": "[1]", "result": "1000 to 5000", "unit": "nM"},
      {"measurement": "IC50", "setting": "[2]", "result": "100 to 1000", "unit": "nM"}
    ]},
    {"smiles": "CC[C@]1(c2cccc(-c3cnn(CCOC)c3)c2)C2=C(CC(C)(C)CC2=O)NC2N=NC(C)=C21", "note": "(some centres undefined) [US20250313563, Compound 913042]", "values": [
      {"measurement": "IC50", "setting": "[1]", "result": "> 5000", "unit": "nM"},
      {"measurement": "IC50", "setting": "[2]", "result": "> 5000", "unit": "nM"}
    ]},
    {"smiles": "CC1(C)CC(=O)C2=C(C1)NC1=C(CN=N1)[C@]21CCO[C@H](C(F)(F)F)C1", "note": "[US20250313563, Compound 884023]", "values": [
      {"measurement": "IC50", "setting": "[1]", "result": "> 5000", "unit": "nM"},
      {"measurement": "IC50", "setting": "[2]", "result": "1000 to 5000", "unit": "nM"}
    ]},
    {"smiles": "CN1CCC2(CC1)C1=C(N=NC1)NC1=C2C(=O)CC(C)(C)C1", "note": "[US20250313563, Compound 826714]", "values": [
      {"measurement": "IC50", "setting": "[1]", "result": "> 5000", "unit": "nM"},
      {"measurement": "IC50", "setting": "[2]", "result": "> 5000", "unit": "nM"}
    ]},
    {"smiles": "CC[C@]1(c2cccc(-c3ccnc(OC)c3F)c2)C2=CN=NC2NC2=C1C(=O)NC(C)(C)C2", "note": "(some centres undefined) [US20250313563, Compound 948520]", "values": [
      {"measurement": "IC50", "setting": "[1]", "result": "1000 to 5000", "unit": "nM"},
      {"measurement": "IC50", "setting": "[2]", "result": "100 to 1000", "unit": "nM"}
    ]},
    {"smiles": "C[C@@H]1CCC[C@]2(C1)C1=C(N=NC1)NC1=C2C(=O)CC(C)(C)C1", "note": "[US20250313563, Compound 874537]", "values": [
      {"measurement": "IC50", "setting": "[1]", "result": "100 to 1000", "unit": "nM"},
      {"measurement": "IC50", "setting": "[2]", "result": "100 to 1000", "unit": "nM"}
    ]},
    {"smiles": "CC[C@]1(c2cccc(-c3ccnc4c3CCCC4)c2)C2=CN=NC2NC2=C1C(=O)CC(C)(C)C2", "note": "(some centres undefined) [US20250313563, Compound 944036]", "values": [
      {"measurement": "IC50", "setting": "[1]", "result": "> 5000", "unit": "nM"},
      {"measurement": "IC50", "setting": "[2]", "result": "1000 to 5000", "unit": "nM"}
    ]},
    {"smiles": "CC1(C)CC(=O)C2=C(NC3=C(CN=N3)C23CCOCC3)[C@@H]1F", "note": "[US20250313563, Compound 883834]", "values": [
      {"measurement": "IC50", "setting": "[1]", "result": "1000 to 5000", "unit": "nM"},
      {"measurement": "IC50", "setting": "[2]", "result": "100 to 1000", "unit": "nM"}
    ]},
    {"smiles": "CC[C@@]1(c2cccc(-c3cncn3C)c2)C2=CN=NC2NC2=C1C(=O)NC(C)(C)C2", "note": "(some centres undefined) [US20250313563, Compound 947820]", "values": [
      {"measurement": "IC50", "setting": "[1]", "result": "100 to 1000", "unit": "nM"},
      {"measurement": "IC50", "setting": "[2]", "result": "100 to 1000", "unit": "nM"}
    ]},
    {"smiles": "Cn1ccc(S(=O)(=O)N2CCCC3(CC2)C2=CN=NC2NC2=C3C(=O)CC(C)(C)C2)n1", "note": "(centres undefined) [US20250313563, Compound 917138]", "values": [
      {"measurement": "IC50", "setting": "[1]", "result": "< 100", "unit": "nM"},
      {"measurement": "IC50", "setting": "[2]", "result": "< 100", "unit": "nM"}
    ]},
    {"smiles": "CC[C@]1(c2ccccc2)C2=CN=NC2NC2=C1C(=O)C[C@]1(CCCOC1)C2", "note": "(some centres undefined) [US20250313563, Compound 816878]", "values": [
      {"measurement": "IC50", "setting": "[1]", "result": "1000 to 5000", "unit": "nM"},
      {"measurement": "IC50", "setting": "[2]", "result": "100 to 1000", "unit": "nM"}
    ]}
  ]
}
